The target in data set [1] is Cholinesterase (Homo sapiens, UniProt P06276). Put plainly: Inhibition of human recombinant BuChE using butyrylthiocholine iodide as substrate preincubated for 5 mins followed by substrate addition and measured every 2 mins by DTNB-reagent based Ellman's method.
Data set [2] deals with Beta-secretase 1 (Homo sapiens, UniProt P56817). Put plainly: Inhibition of human recombinant BACE-1 expressed in baculovirus using swedish mutant of APP based Rh-EVNLDAEFK-quencher as substrate incubated for 60 mins by FRET assay.
Data set [3] concerns the target Sodium- and chloride-dependent GABA transporter 1 (Mus musculus, UniProt P31648). The experiment in a line: Inhibition of mouse GAT1 expressed in HEK293 cells assessed as reduction in [3H]-GABA uptake incubated for 10 mins. It counts as cell-based.
Data set [4] deals with T1, GABA transporter 4 (Mus musculus, UniProt P31650).
T1 sequence (P31650 whole entry): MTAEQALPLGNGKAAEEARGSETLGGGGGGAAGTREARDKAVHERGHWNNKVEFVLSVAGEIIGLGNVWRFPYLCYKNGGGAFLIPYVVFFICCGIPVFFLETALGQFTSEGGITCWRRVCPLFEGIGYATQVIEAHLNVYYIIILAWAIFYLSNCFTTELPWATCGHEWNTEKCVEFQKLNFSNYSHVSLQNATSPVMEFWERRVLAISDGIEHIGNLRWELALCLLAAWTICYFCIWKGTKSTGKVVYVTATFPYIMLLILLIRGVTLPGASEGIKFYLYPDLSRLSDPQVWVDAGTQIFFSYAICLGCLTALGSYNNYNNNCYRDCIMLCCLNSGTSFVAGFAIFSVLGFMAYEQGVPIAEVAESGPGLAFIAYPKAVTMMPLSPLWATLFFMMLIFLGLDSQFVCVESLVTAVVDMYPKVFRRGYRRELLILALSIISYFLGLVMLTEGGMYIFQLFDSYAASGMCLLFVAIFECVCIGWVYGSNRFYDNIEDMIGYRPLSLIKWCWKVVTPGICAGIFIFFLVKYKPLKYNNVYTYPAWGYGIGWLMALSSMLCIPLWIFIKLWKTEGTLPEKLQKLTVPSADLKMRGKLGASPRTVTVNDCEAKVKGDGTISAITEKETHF
The experiment in a line: Inhibition of mouse GAT4 expressed in HEK293 cells assessed as reduction in [3H]-GABA uptake incubated for 10 mins. Type of data set: cell-based.

Data set [5] is described as follows: Metabolic stability in human liver microsomes assessed as parent compound remaining incubated for 120 mins in presence of NADPH regeneration system by UPLC/MS analysis. It counts as ADME, Microsome. Conditions: read-out: Stability; call rule not given here. In general terms: Liver microsomes are vesicles of endoplasmic reticulum, rich in cytochrome P450 enzymes.
The nature of data set [6]: Drug metabolism in human liver microsomes assessed as N-dealkylation mediated metabolite formation. Type of data set: ADME, Microsome.
In data set [7] the target is Cytochrome P450 3A4 (Homo sapiens, UniProt P08684). Put plainly: Inhibition of CYP3A4 (unknown origin) at 10 uM. It counts as ADME.
Data set [8] addresses Cytochrome P450 2D6 (Homo sapiens, UniProt P10635). The experiment in a line: Inhibition of CYP2D6 (unknown origin) at 10 uM. It counts as ADME.
Data set [9] in a line: Cmax in CD-1 mouse plasma at 10 mg/kg, ip administered as single dose and measured after 15 to 240 mins by LC-MS/MS analysis. Type of data set: ADME, organism-based. Also on record: dose 10 mg/kg, time 15-240 min, route ip.
The nature of data set [10]: Cmax in CD-1 mouse plasma at 30 mg/kg, ip administered as single dose and measured after 15 to 240 mins by LC-MS/MS analysis. It counts as ADME, organism-based. Also on record: time upper 240 min, time lower 15 min, dose 30 mg/kg, route ip.
Data set [11] is described as follows: Cmax in CD-1 mouse brain at 10 mg/kg, ip administered as single dose and measured after 15 to 240 mins by LC-MS/MS analysis. Type of data set: ADME, organism-based. Also on record: time 15-240 min, dose 10 mg/kg, route ip.
The nature of data set [12]: Cmax in CD-1 mouse brain at 30 mg/kg, ip administered as single dose and measured after 15 to 240 mins by LC-MS/MS analysis. It counts as ADME, organism-based. Also on record: time upper 240 min, time lower 15 min, dose 30 mg/kg, route ip.
The nature of data set [13]: Tmax in CD-1 mouse plasma at 10 mg/kg, ip administered as single dose and measured after 15 to 240 mins by LC-MS/MS analysis. It counts as ADME, organism-based. Conditions: time 15-240 min.
A short description of data set [14]: Tmax in CD-1 mouse plasma at 30 mg/kg, ip administered as single dose and measured after 15 to 240 mins by LC-MS/MS analysis. The following applies: time 15-240 min. Type of data set: ADME, organism-based.
Data set [15] is described as follows: Tmax in CD-1 mouse brain at 10 mg/kg, ip administered as single dose and measured after 15 to 240 mins by LC-MS/MS analysis. Type of data set: ADME, organism-based. The following applies: time 15-240 min.
Data set [16] is described as follows: Tmax in CD-1 mouse brain at 30 mg/kg, ip administered as single dose and measured after 15 to 240 mins by LC-MS/MS analysis. Type of data set: ADME, organism-based. Conditions: time 15-240 min.
A short description of data set [17]: Half life in CD-1 mouse plasma at 30 mg/kg, ip administered as single dose and measured after 15 to 240 mins by LC-MS/MS analysis. It counts as ADME, organism-based. The following applies: time 15-240 min.
Data set [18] in a line: AUC (0 to t) in CD-1 mouse plasma at 10 mg/kg, ip administered as single dose and measured after 15 to 240 mins by LC-MS/MS analysis. It counts as ADME, organism-based. Also on record: time upper 240 min, dose 10 mg/kg, time lower 15 min, route ip.
The nature of data set [19]: AUC (0 to t) in CD-1 mouse plasma at 30 mg/kg, ip administered as single dose and measured after 15 to 240 mins by LC-MS/MS analysis. Also on record: dose 30 mg/kg, time 15-240 min, route ip. Type of data set: ADME, organism-based.
Data set [20] is described as follows: AUC (0 to t) in CD-1 mouse brain at 10 mg/kg, ip administered as single dose and measured after 15 to 240 mins by LC-MS/MS analysis. Type of data set: ADME, organism-based. Also on record: time 15-240 min, dose 10 mg/kg, route ip.
A short description of data set [21]: AUC (0 to t) in CD-1 mouse brain at 30 mg/kg, ip administered as single dose and measured after 15 to 240 mins by LC-MS/MS analysis. It counts as ADME, organism-based. Also on record: time upper 240 min, dose 30 mg/kg, time lower 15 min, route ip.
A short description of data set [22]: MRT in CD-1 mouse plasma at 10 mg/kg, ip administered as single dose and measured after 15 to 240 mins by LC-MS/MS analysis. It counts as ADME, organism-based. The following applies: time 15-240 min.
The nature of data set [23]: MRT in CD-1 mouse plasma at 30 mg/kg, ip administered as single dose and measured after 15 to 240 mins by LC-MS/MS analysis. Type of data set: ADME, organism-based. Conditions: time 15-240 min.
Data set [24] is described as follows: MRT in CD-1 mouse brain at 10 mg/kg, ip administered as single dose and measured after 15 to 240 mins by LC-MS/MS analysis. It counts as ADME, organism-based. Conditions: time 15-240 min.
Data set [25] is described as follows: MRT in CD-1 mouse brain at 30 mg/kg, ip administered as single dose and measured after 15 to 240 mins by LC-MS/MS analysis. Conditions: time 15-240 min. Type of data set: ADME, organism-based.
Data set [26] is described as follows: Half life in CD-1 mouse plasma at 10 mg/kg, ip administered as single dose and measured after 15 to 240 mins by LC-MS/MS analysis. Type of data set: ADME, organism-based. The following applies: time 15-240 min.
Data set [27] is described as follows: Half life in CD-1 mouse brain at 10 mg/kg, ip administered as single dose and measured after 15 to 240 mins by LC-MS/MS analysis. The following applies: time 15-240 min. Type of data set: ADME, organism-based.
Data set [28] is described as follows: Half life in CD-1 mouse brain at 30 mg/kg, ip administered as single dose and measured after 15 to 240 mins by LC-MS/MS analysis. It counts as ADME, organism-based. The following applies: time 15-240 min.
Data set [29] in a line: Apparent clearance in CD-1 mouse plasma at 10 mg/kg, ip administered as single dose and measured after 15 to 240 mins by LC-MS/MS analysis. It counts as ADME, organism-based. The following applies: time 15-240 min, read-out: CL(app).
A short description of data set [30]: Apparent clearance in CD-1 mouse plasma at 30 mg/kg, ip administered as single dose and measured after 15 to 240 mins by LC-MS/MS analysis. The following applies: time 15-240 min, read-out: CL(app). It counts as ADME, organism-based.
A short description of data set [31]: Apparent volume of distribution in CD-1 mouse plasma at 10 mg/kg, ip administered as single dose and measured after 15 to 240 mins by LC-MS/MS analysis. It counts as ADME, organism-based. Conditions: in vivo, time 15-240 min.
Data set [32] in a line: Apparent volume of distribution in CD-1 mouse plasma at 30 mg/kg, ip administered as single dose and measured after 15 to 240 mins by LC-MS/MS analysis. Type of data set: ADME, organism-based. The following applies: in vivo, time 15-240 min.
Data set [33] addresses ATP-dependent translocase ABCB1 (Homo sapiens, UniProt P08183). The experiment in a line: Substrate activity at P-gp membranes (unknown origin) at 100 uM incubated for 40 mins by luminescent glo assay relative to control. It counts as ADME, cell membranes, Membrane.
Data set [34] in a line: Ratio of brain to plasma partition coefficient in CD-1 mouse at 10 mg/kg, ip administered as single dose and measured after 15 to 240 mins by LC-MS/MS analysis. Type of data set: ADME, organism-based. Conditions: time 15-240 min, read-out: BPR.
The nature of data set [35]: Ratio of brain to plasma partition coefficient in CD-1 mouse at 30 mg/kg, ip administered as single dose and measured after 15 to 240 mins by LC-MS/MS analysis. It counts as ADME, organism-based. The following applies: time 15-240 min, read-out: BPR.
Data set [36] is described as follows: cells. Conditions: Mus musculus, HEK293.
Description: Inhibition of mouse GAT2 expressed in HEK293 cells assessed as reduction in [3H]-GABA uptake incubated for 10 mins
The nature of data set [37]: cells. Conditions: Mus musculus, HEK293. This is another data set of the same source.
Description: Inhibition of mouse GAT3 expressed in HEK293 cells assessed as reduction in [3H]-GABA uptake incubated for 10 mins

Chain of Cholinesterase (P06276 whole entry): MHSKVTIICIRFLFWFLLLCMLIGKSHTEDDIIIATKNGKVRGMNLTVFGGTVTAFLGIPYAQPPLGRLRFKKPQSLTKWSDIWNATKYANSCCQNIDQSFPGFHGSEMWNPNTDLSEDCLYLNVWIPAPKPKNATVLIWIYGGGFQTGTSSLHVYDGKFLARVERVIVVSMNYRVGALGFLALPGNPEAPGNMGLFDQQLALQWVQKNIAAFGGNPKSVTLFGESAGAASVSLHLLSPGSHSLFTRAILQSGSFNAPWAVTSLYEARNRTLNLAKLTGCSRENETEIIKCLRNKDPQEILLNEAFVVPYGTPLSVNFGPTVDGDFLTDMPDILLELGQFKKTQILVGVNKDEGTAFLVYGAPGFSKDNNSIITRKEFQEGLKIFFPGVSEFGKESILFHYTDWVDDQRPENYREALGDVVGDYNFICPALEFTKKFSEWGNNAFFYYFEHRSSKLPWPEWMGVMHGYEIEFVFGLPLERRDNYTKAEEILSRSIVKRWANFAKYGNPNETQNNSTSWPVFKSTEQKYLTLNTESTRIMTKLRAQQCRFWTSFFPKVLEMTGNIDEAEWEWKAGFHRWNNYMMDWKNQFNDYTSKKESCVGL
Chain of Cytochrome P450 3A4 (P08684 whole entry): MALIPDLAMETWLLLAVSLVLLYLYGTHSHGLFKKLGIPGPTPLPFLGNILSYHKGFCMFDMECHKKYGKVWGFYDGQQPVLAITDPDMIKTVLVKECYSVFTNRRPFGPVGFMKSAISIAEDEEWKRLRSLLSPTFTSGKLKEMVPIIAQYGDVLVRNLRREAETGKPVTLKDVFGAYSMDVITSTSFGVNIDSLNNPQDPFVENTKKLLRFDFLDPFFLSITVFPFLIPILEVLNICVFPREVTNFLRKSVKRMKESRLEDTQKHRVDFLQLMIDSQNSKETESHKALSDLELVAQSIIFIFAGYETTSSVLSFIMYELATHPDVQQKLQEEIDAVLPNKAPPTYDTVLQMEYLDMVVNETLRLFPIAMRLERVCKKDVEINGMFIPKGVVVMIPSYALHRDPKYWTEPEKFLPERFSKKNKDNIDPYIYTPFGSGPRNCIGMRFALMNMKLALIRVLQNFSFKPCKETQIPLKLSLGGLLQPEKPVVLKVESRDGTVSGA
Chain of Cytochrome P450 2D6 (P10635 whole entry): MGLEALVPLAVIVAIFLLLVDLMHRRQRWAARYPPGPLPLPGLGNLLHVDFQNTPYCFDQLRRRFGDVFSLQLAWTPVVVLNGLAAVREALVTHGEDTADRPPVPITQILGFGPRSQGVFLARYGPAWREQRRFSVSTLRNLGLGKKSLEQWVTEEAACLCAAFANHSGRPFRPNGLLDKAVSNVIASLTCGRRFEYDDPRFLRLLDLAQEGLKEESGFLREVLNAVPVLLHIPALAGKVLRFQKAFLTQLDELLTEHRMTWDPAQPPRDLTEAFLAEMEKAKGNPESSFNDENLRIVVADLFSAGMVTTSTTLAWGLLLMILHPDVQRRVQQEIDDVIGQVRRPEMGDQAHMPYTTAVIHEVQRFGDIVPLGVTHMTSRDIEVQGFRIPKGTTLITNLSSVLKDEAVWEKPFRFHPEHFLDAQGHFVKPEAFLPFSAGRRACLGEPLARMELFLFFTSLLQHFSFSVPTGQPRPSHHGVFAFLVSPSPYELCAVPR
Chain of ATP-dependent translocase ABCB1 (P08183 whole entry): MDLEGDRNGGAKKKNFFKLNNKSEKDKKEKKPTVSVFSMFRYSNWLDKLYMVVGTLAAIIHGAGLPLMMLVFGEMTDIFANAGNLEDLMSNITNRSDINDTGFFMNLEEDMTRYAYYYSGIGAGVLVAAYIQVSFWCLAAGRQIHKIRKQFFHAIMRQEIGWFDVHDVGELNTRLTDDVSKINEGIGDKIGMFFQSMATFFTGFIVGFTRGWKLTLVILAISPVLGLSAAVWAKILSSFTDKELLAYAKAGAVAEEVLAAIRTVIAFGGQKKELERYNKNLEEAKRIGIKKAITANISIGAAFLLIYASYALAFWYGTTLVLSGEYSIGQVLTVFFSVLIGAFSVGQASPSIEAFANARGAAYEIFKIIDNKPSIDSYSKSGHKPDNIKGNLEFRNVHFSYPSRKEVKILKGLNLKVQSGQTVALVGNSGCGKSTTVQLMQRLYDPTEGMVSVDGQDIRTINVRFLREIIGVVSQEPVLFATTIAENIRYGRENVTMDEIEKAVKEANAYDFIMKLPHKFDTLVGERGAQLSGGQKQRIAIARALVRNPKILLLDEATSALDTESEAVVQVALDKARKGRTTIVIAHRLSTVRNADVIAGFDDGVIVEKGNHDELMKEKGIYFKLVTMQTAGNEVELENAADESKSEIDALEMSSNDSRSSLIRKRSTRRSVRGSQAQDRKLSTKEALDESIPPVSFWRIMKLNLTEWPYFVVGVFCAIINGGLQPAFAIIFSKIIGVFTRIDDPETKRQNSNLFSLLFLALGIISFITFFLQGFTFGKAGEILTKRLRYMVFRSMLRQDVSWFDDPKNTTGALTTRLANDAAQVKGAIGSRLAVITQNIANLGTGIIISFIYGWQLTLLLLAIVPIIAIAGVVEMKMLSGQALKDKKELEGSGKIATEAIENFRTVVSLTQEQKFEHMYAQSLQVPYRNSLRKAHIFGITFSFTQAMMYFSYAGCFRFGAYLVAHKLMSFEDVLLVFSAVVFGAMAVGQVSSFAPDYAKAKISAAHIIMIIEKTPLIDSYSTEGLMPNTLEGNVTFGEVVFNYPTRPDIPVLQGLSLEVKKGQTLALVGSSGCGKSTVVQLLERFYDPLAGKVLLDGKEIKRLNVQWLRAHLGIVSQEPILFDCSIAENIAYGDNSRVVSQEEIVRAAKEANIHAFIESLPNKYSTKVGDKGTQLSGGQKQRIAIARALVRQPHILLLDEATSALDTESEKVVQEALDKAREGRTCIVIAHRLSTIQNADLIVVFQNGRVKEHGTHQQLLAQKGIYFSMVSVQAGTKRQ
Chain of Beta-secretase 1 (P56817 whole entry): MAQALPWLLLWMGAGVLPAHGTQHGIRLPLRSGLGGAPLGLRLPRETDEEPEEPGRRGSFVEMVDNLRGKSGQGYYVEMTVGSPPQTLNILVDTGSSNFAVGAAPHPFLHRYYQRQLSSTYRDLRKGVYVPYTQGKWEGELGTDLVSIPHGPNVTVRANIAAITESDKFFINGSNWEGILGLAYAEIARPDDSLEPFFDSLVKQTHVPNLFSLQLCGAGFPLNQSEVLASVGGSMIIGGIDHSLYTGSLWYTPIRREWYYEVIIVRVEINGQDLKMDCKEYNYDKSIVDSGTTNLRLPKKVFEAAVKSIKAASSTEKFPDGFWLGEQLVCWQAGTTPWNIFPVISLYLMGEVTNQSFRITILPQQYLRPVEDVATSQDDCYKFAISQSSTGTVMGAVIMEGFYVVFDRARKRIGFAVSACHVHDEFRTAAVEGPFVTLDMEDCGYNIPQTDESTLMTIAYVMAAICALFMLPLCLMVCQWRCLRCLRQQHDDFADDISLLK

Turning to `CC(C)(C)c1cccc(CNCC(O)CNCCC(c2ccccc2)c2ccccc2)c1` (configuration not stated), the IC50 (as a rule, the concentration needed to halve the response being measured) in data set [1] came to 6 µM; in data set [2] it was 41 µM.
Take `O=C(CC(c1ccccc1)c1ccccc1)NCC(O)CNCC1CCCCC1` (configuration not stated): the IC50 in data set [3], in data set [4], in data set [36] and in data set [37] was greater than 10 µM in each case. The remaining at 2 h in [5] is greater than 80%. Moreover, the Drug metabolism entry in data set [6] was “Metabolite_Detected”. The “inhibition (INH)” value in data set [7] and in data set [8] was “Active” each time. In addition, the Cmax (in general, the peak of the concentration-time curve) was 192 ng/mL in data set [9], 312 ng/mL in [10], 27.4 ng/mL in data set [11] and 44.3 ng/mL in data set [12]. Moreover, the Tmax in [13], in [14], in [15] and in data set [16] was 0.25 h in each case. Besides, the half-life (as a rule, the time in which the quantity being followed falls by half) in data set [17] came to 0.912 h; in data set [26], 1.6 h; in data set [27] it was 5.84 h; in [28], 4.24 h. Further, the AUC(0-t) (usually the area under the concentration-time curve up to a stated or last time point) in [18] was 247 ng·h/mL; in data set [19] it was 441 ng·h/mL; in data set [20], 85.1 ng·h/mL; in data set [21], 122 ng·h/mL. For the same compound, the MRT (commonly the average time that molecules of a dose stay in the body) in data set [22] is 1.24 h; in data set [23], 1.03 h; in data set [24], 1.88 h; in [25], 1.8 h. The CL/F was found to be 577 mL/min/kg in data set [29] and 1070 mL/min/kg in data set [30]. The figures for the Vz in [31] and in data set [32] were 80 L/kg and 84.4 L/kg, respectively. Further, the Activity result in data set [33] is given as “<= 190%”. The Kp in data set [34] came out at 0.34; in [35], 0.28.

The record behind these values is ChEMBL document CHEMBL5346882 (Eur J Med Chem, 2023).
